Test results as given in patent publication US20210346385A1, “TASTE-MASKED DOSAGE FORMS” (MSB Holdings, Inc, priority 2018, published 2021).

Experiment: Dissolving time of the troche
Assay type: physicochemical
[1] = ingredient in troche of Example 4f
[2] = ingredient in troche of Example 4i
[3] = ingredient in troche of Example 4j
[4] = ingredient in troche of Example 4k
[5] = ingredient in troche of Example 4l
[6] = ingredient in troche of Example 4m
[7] = ingredient in troche of Example 4n
[8] = ingredient in troche of Example 4o (ButterCream)
[9] = ingredient in troche of Example 4o (Vanilla, Marshmallow)
[10] = ingredient in troche of Example 4p
[11] = ingredient in troche of Example 4c, troche with silica, acacia and Winterfresh
[12] = ingredient in troche of Example 42
[13] = ingredient in troche of Example 4h
[14] = ingredient in troche of Example 4d, troche with Alpha agent, silica, acacia, cherry

Compound | Dissolving time: remark for the single ingredient [1] | Dissolving time: remark for the single ingredient [2] | Dissolving time: remark for the single ingredient [3] | Dissolving time: remark for the single ingredient [4] | Dissolving time: remark for the single ingredient [5] | Dissolving time: remark for the single ingredient [6] | Dissolving time: remark for the single ingredient [7] | Dissolving time: remark for the single ingredient [8] | Dissolving time: remark for the single ingredient [9] | Dissolving time: remark for the single ingredient [10] | Dissolving time: remark for the single ingredient [11] | Dissolving time: remark for the single ingredient (ingredient in troche of Example 4e) | Dissolving time: remark for the single ingredient [12] | Dissolving time: remark for the single ingredient [13] | Dissolving time: remark for the single ingredient [14] | Dissolving time: remark for the single ingredient (ingredient in troche of Example 4b)
CC1=CC(=O)NS(=O)(=O)O1 [Acesulfame] | No effect | No effect | No effect | No effect | No effect | No effect | No effect | No effect | No effect | No effect |  |  |  |  |  | 
CCCc1nn(C)c2c(=O)[nH]c(-c3cc(S(=O)(=O)N4CCN(C)CC4)ccc3OCC)nc12 [Sildenafil, reference compound] | No effect | No effect | No effect | No effect | No effect | No effect | No effect | No effect | No effect | No effect | No effect | No effect | No effect | No effect | No effect | 
C=C1C[C@@]23CC[C@H]4[C@@](C)(CCC[C@@]4(C)C(=O)O)[C@@H]2CC[C@]1(O)C3 [Steviol] |  |  | No effect | No effect | No effect | No effect | No effect | No effect | No effect | No effect |  |  | No effect | No effect |  | 
Sugar |  |  |  |  |  |  |  |  |  |  | Did Not Help |  |  |  | No effect | Did Not Help
